Entries after “also recorded” stand apart in the source; their conditions may differ. Like-named read-outs stand apart in the source and are kept apart here.
Key:
PZ [1] = target: T1, PZ (Homo sapiens, UniProt P22891); experiment: Binding of soluble lipids to PZ by intrinsic tryptophan fluorescence; details: for effect of pre-incubation of PZ with C6PS on affinity of PZ towards the lipid: saturating amount of C6PS; for lower binding affinity to PZ compared to PS and PE: soluble lipids, 5 mM Ca2+; for Kd in 1 mM Ca2+ relative to Kd in 5 mM Ca2+: 1 mM vs 5 mM Ca2+; for binding to PZ with excess EDTA: 5 mM EDTA in the assay buffer
T1 construct: purchased Enzyme Research Laboratories (South Bend, IN, USA)
Description: (§1) PZ intrinsic tryptophan fluorescence as a function of increasing concentration of soluble phospholipid was measured as described in [12] using a FluoroLog spectrofluorometer (Horiba Jobin-Yvon Inc., Edison, NJ) with an excitation wavelength of 285nm (band-pass 4 nm); emission was recorded at 340 nm (band-pass 4 nm). Each experiment was performed below the critical micelle concentration (CMC) of the soluble lipid. The CMC was determined under experimental conditions following pyrene fluorescence as a function of increasing lipid concentration. Apparent dissociation constants for binding of PZ to soluble lipids were obtained by fitting the experimental data to a simple, single-site binding model, using the assumption that [C6PL]free ≈ [C6PL]total

[2] = Critical micelle concentration by pyrene fluorescence; type: physicochemical; details: under experimental conditions
Description: as §1
Since pyrene is hydrophobic, partitioning into the interior of a micelle is manifested as a sharp increase in the ratio of the intensity of the pyrene emissions at 373 and 383 nm.

PZ [3] = target: T1, PZ; experiment: Equilibrium dialysis of soluble C6PS/C6PE binding to PZ; details: for Stoichiometry (Average) of lipid binding to PZ / ΔP (difference in phosphate concentration): 250 μM lipid, 5 mM Ca2+; for Stoichiometry (Average) of lipid binding to PZ: PZ 15, 20, 30 μM, calculated from Eq (1); for binding to PZ in equilibrium dialysis without Ca2+: absence of Ca2+ and presence of EDTA in the buffer
Description: Experiments were performed using 2.0-ml Teflon dialysis cells (Harvard Apparatus, Holliston, MA) with the two cells separated by a 2000 Da molecular weight cut-off membrane. Both chambers contained equal amount of […], and one chamber contained the appropriate amount of PZ. Both chambers were allowed to equilibrate with each other at room temperature for 24 h while being rotated horizontally at 20 rpm. […] where, n is the stoichiometry of binding, [L] is the concentration of phospholipid added to the chamber, [P] is the protein concentration present in one half of the chamber, and Kd is the binding constant obtained from fluorescence experiments. Total protein concentration, [P], must be large enough to detect a measurable difference in phosphate concentration between the two chambers. In a recent analysis of soluble lipid binding to two non-equivalent sites on fIXa, it was shown that a narrow protein concentration range was sufficient to obtain stoichiometries for each site. […] For each protein concentration, three aliquots were withdrawn and phosphate concentrations were measured.

fXa = target: fXa; design: method as in PMID 21859710; details: soluble lipid; read-out: Kd for binding of fXa; cited from earlier work
human fXa = human fXa (Homo sapiens, UniProt P00742); experiment: FXa inhibition assay: AT-mediated inhibition of fXa amidolytic activity (S2765); type: biochemical; details: 40 nM PZ, 3 μM AT, no membrane
Description: Amidolytic activity of human fXa was measured in an assay mixtures containing 5 nM fXa, 3 μM AT, 50 μM phospholipid membrane (DOPS:DOPC, DOPE:DOPC, and only DOPC) and 40 nM PZ in buffer (50 mM Tris, 175 mM NaCl, 0.6% PEG, 5 mM CaCl2, pH 7.4 using the substrate S2765 according to the method described in [31]. Briefly, mixtures (150 μl) containing fXa in appropriate buffer were incubated with or without PZ and with or without membrane at 37°C in the wells of a microtiter plate for 5 mins before adding AT to that. 1 mM of substrate S2765 was added then and initial rate of substrate cleavage was determined by measuring the absorbance at 405 nm using the plate reader (Molecular Devices, CA, USA). Factor Xa activity was determined by comparing the initial rate of substrate cleavage with a standard curve produced with various concentrations of factor Xa in the same buffer conditions.

[4] = 150 nM PZ, 5 mM CaCl2, pH 7.5, 25° C, no pre-incubation lipid, single-site binding model, read-out: apparent Kd for binding to PZ
[5] = 1 mM Ca2+, read-out: binding Kd to PZ in presence of 1 mM Ca2+

T1 sequence (P22891 41-400): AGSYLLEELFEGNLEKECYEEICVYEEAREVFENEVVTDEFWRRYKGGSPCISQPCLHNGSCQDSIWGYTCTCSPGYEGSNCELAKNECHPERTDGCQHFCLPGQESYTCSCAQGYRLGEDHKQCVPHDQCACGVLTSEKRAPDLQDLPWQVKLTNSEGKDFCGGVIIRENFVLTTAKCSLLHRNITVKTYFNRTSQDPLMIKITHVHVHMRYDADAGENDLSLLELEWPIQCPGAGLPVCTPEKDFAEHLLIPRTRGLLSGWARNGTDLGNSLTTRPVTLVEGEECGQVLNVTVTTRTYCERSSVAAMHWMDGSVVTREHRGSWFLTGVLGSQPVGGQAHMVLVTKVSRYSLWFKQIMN
Sequence of human fXa (P00742 41-179 limits assumed): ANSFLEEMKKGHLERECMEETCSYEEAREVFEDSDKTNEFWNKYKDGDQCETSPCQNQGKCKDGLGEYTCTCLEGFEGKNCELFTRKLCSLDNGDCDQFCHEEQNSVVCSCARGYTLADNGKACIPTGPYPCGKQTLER
Sequence of human fXa (P00742 235-488 limits assumed): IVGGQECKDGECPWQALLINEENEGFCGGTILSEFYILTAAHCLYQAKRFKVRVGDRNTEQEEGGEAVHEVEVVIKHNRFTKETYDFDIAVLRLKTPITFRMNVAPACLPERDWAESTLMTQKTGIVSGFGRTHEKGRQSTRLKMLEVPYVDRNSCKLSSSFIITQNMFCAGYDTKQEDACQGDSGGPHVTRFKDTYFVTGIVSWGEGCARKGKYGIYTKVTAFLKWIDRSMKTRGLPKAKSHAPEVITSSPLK

## CCCCCC(=O)OC[C@H](COP(=O)(O)OCC(O)CO)OC(=O)CCCCC (stereo partly shown) [C6PG]
PZ [1]; [4]
  Kd: 131 ± 39 µM
PZ [1]
  effect of pre-incubation of PZ with C6PS on affinity of PZ towards the lipid: did not alter the affinity; also recorded: did not enhance the affinity
  lower binding affinity to PZ compared to PS and PE: ~ 3 fold

## CCCCCC(=O)OC[C@H](COP(=O)(O)OCCN)OC(=O)CCCCC [C6PE, 1,2-dicaproyl-sn-glycero-3-phospho-L-ethanolamine]
[2]
  critical micelle concentration (CMC): 1.2 mM
PZ [3]
  Stoichiometry (Average) of lipid binding to PZ: 2.0 (1.93 ± 0.2)
  binding to PZ in equilibrium dialysis without Ca2+: did not detect any binding
PZ [3]; [PZ] 15 μM
  ΔP (difference in phosphate concentration): 28.9 ± 0.08
PZ [3]; [PZ] 20 μM
  ΔP (difference in phosphate concentration): 31.8 ± 0.2
PZ [3]; [PZ] 30 μM
  ΔP (difference in phosphate concentration): 42.8 ± 0.6
PZ [1]; 150 nM PZ, 5 mM CaCl2, pH 7.5, 25° C, no pre-incubation lipid, single-site binding model, listed as PE, read-out: apparent Kd for binding to PZ
  Kd: ~48 µM
PZ [1]; [4]
  Kd: 47.6 ± 8.2 µM
PZ [1]; [5]
  Kd: 172 µM
PZ [1]
  Kd in 1 mM Ca2+ relative to Kd in 5 mM Ca2+: about 3.5 fold
  binding to PZ with excess EDTA: did not observe any binding
fXa
  Kd: 91 µM

## CCCCCC(=O)OC[C@H](COP(=O)([O-])OCC[N+](C)(C)C)OC(=O)CCCCC [C6PC]
PZ [1]; [4]
  Kd: 129 ± 32 µM
PZ [1]
  effect of pre-incubation of PZ with C6PS on affinity of PZ towards the lipid: did not alter the affinity; also recorded: did not enhance the affinity
  lower binding affinity to PZ compared to PS and PE: ~ 3 fold

## CCCCCC(=O)OC[C@H](COP(=O)(O)O)OC(=O)CCCCC [C6PA]
PZ [1]; [4]
  Kd: 165 ± 25 µM
PZ [1]
  effect of pre-incubation of PZ with C6PS on affinity of PZ towards the lipid: did not alter the affinity; also recorded: did not enhance the affinity
  lower binding affinity to PZ compared to PS and PE: ~ 3 fold

## CCCCCC(=O)OC[C@H](COP(=O)(O)OC[C@@H](N)C(=O)O)OC(=O)CCCCC [C6(D)PS]
PZ [1]; [4]
  Kd: 911 ± 300 µM

## CCCCCC(=O)OC[C@H](COP(=O)(O)OC[C@H](N)C(=O)O)OC(=O)CCCCC [C6PS, 1,2-dicaproyl-sn-glycero-3-phospho-L-serine]
[2]
  critical micelle concentration (CMC): 0.95 mM
PZ [3]
  Stoichiometry (Average) of lipid binding to PZ: 2.0 (1.96 ± 0.1)
  binding to PZ in equilibrium dialysis without Ca2+: did not detect any binding
PZ [3]; [PZ] 15 μM
  ΔP (difference in phosphate concentration): 27.6 ± 0.2
PZ [3]; [PZ] 20 μM
  ΔP (difference in phosphate concentration): 32.3 ± 0.09
PZ [3]; [PZ] 30 μM
  ΔP (difference in phosphate concentration): 45.3 ± 0.1
PZ [1]; [4]
  Kd: 47.7 ± 10.7 µM
PZ [1]; [5]
  Kd: 165 µM
PZ [1]
  Kd in 1 mM Ca2+ relative to Kd in 5 mM Ca2+: about 3.5 fold
  binding to PZ with excess EDTA: did not observe any binding
fXa
  Kd: 86 µM

## PZ: human Protein Z, 62 kDa vitamin K-dependent cofactor
Human fXa
  effect of inclusion of PZ on AT inhibition of fXa: essentially no effect

Reference: PMC5008636, “Phosphatidylserine and Phosphatidylethanolamine Bind to Protein Z Cooperatively and with Equal Affinity” (PLoS ONE, 2016)
